Results taken from article PMC3608651, “A Broad Profile of Co-Dominant Epitopes Shapes the Peripheral Mycobacterium tuberculosis Specific CD8+ T-Cell Immune Response in South African Patients with Active Tuberculosis” (PLoS ONE, 2013).
Read-outs that look alike come from different tables or passages of the source.

How the values were obtained:
Format in all cases: binding
HLA-A*02:01 [1] = target: T1, HLA-A*02:01 (Homo sapiens, UniProt P04439, D140Y/D185E/D98H/E176V/E277Q/G131W/G231S/I119V/I121R/I166T/I218V/L300P/L318F/N151K/N90K/P208A/P217A/Q86G/Q94H/R138H/R169H/T345S); conditions: peptide quantity for 50% binding saturation
HLA-A*24:02 = HLA-A*24:02 (Homo sapiens, UniProt P04439, D101N/D140Y/D185E/E176V/E190D/F33S/G103R/G107R/I119L/I121M/I306V/K335N/L105A/L180Q/L300P/N151K/N90K/Q86E/Q94H/R106L/R138H/R89G/T104I/T345S/V100E/W191G/Y123F); conditions: duplicated experiments, positive binder >40%
HLA-A*68:01 [2] = target: T2, HLA-A*68:01 (Homo sapiens, UniProt P04439, A269V/D185E/E176V/E277Q/E87N/F33Y/G231S/I121M/I166T/I218V/L180W/L300P/L318F/N151K/P208A/P217A/Q86R/R169H/T345S); conditions: duplicated experiments, positive binder >40%
HLA-A*30:01 = HLA-A*30:01 (Homo sapiens, UniProt P04439, D140H/D185E/E176W/F33S/G80R/H175R/K168Q/R138E/R41S); conditions: duplicated experiments, positive binder >40%
HLA-C*07:01 = HLA-C*07:01 (Homo sapiens, UniProt P10321, K90N/S123Y); conditions: duplicated experiments, positive binder >40%
HLA-A*02:01 [3] = target: T1, HLA-A*02:01; conditions: plate-bound monomer 0.5 µg/ml, duplicated experiments, positive binder >40%
HLA-B*07:02 = HLA-B*07:02 (Homo sapiens, UniProt P01889); conditions: percent relative the binding of positive control peptide […]; duplicated experiments; positive binder >40%
HLA-A*02:01 [4] = target: T1, HLA-A*02:01; conditions: time points 0-8 h; time when 50% of peptide has dissociated
HLA-A*30:02 [5] = target: T3, HLA-A*30:02 (Homo sapiens, UniProt P04439, D101N/D140H/D185E/E176R/F33S/G80R/H175R/K168Q/Q94H/R138E/R41S/V100E); conditions: duplicated experiments, positive binder >40%
HLA-B*58:01 [6] = target: T4, HLA-B*58:01 (Homo sapiens, UniProt P01889, A329T/C349S/D201E/D98Y/E176V/E187L/E204Q/E69T/G107R/I218V/I90N/K202T/L105A/L119I/N104I/N87E/Q89R/Q94S/R106L/R155S/R180L/R86G/S101N/S121R/S35A/S48A/T118I/V127L/V306I/V36M/Y140S/Y91M); conditions: duplicated experiments, positive binder >40%
HLA-A*30:02 [7] = target: T3, HLA-A*30:02; conditions: time points 0-8 h
HLA-A*30:02 [8] = target: T3, HLA-A*30:02
HLA-A*68:01 [9] = target: T2, HLA-A*68:01
HLA-A*68:01 [10] = target: T2, HLA-A*68:01; conditions: time points 0-8 h
HLA-B*58:01 [11] = target: T4, HLA-B*58:01; conditions: time points 0-8 h
HLA-B*58:01 [12] = target: T4, HLA-B*58:01
[13] = peptide titrated 10−4 to 10−9 M
[14] = percent relative the binding of positive control peptide RYLKDQQLL
[15] = percent relative the binding of positive control peptide KTGGPIYKR
[16] = percent relative the binding of positive control peptide KTKDIVNGL
[17] = percent relative the binding of positive control peptide KYFDEHYEY
[18] = percent relative the binding of positive control peptide FLPSDFFPSV
[19] = percent relative the binding of positive control peptide KIQNFRVYY
[20] = percent relative the binding of positive control peptide IAMESIVIW
[21] = percent relative the binding of positive control peptide […]

Row | Substance | Bind B*07:02 (HLA-B*07:02) | O-rate A*02:01 (t1/2) (HLA-A*02:01 [4]) | Aff A*02:01 (ED50) (HLA-A*02:01 [1]; […]) | Bind A*24:02 (HLA-A*24:02; [21]) | Bind A*02:01 (HLA-A*02:01 [3]; [21]) | O-rate A*30:02 (t1/2) (HLA-A*30:02 [7]) | Bind A*30:02 (HLA-A*30:02 [5]; [21]) | Aff A*30:02 (ED50) (HLA-A*30:02 [8]) | Aff A*68:01 (ED50) (HLA-A*68:01 [9]) | Bind A*68:01 (HLA-A*68:01 [2]; [21]) | Bind A*30:01 (HLA-A*30:01; [21]) | Bind C*07:01 (HLA-C*07:01; [21]) | O-rate A*68:01 (t1/2) (HLA-A*68:01 [10]) | Bind B*58:01 (HLA-B*58:01 [6]; [21]) | also measured
1 | ALQNLARTI [Rv3875_68–76] | 8% | 1.7 h |  |  |  |  |  |  |  |  |  |  |  |  | Aff A*02:01 (ED50) (HLA-A*02:01 [1]; [13]): 0.03 µM; Bind A*24:02 (HLA-A*24:02; [14]): 0%; Bind A*68:01 (HLA-A*68:01 [2]; [15]): 0%; Bind A*30:01 (HLA-A*30:01; [16]): 0%; Bind C*07:01 (HLA-C*07:01; [17]): 0%; Bind A*02:01 (HLA-A*02:01 [3]; [18]): 73%; Bind A*30:02 (HLA-A*30:02 [5]; [19]): 17%; Bind B*58:01 (HLA-B*58:01 [6]; [20]): 0%
2 | AMLDHAGDM [Rv0288_10–18m2] |  | 1.1 h | 0.08 µM | 13% | 47% | 0.4 h | 100% | 0.7 µM |  |  |  |  |  |  | 
3 | AVYLLDGLR | 0% |  |  | 8% | 24% | 1.2 h | 115% | 0.2 µM | 2E -07 M | 114% | 1% | 4% | 1.1 h | 0% | 
4 | EQAALQSAW [Rv0288_35–43] |  |  |  |  |  |  |  |  | 1e-05 M | 47% |  | 0% | 2.8 h | 79% | O-rate B*58:01 (t1/2) (HLA-B*58:01 [11]): 0.8 h; Aff B*58:01 (ED50) (HLA-B*58:01 [12]): 6 µM
5 | F EW YYQSG L | 11% | 0.8 h | 0.7 µM | 37% | 124% |  | 26% |  |  | 10% | 10% | 15% |  | 0% | 
6 | GLSIVMPVG | 0% | 2.1 h | 0.07 µM | 0% | 100% |  | 0% |  |  | 0% | 0% | 0% |  | 0% | 
7 | HSMSSTHEA [Rv0288_70–78m1] |  | 0.3 h | 1000 µM |  | 45% | 0.9 h | 39% | 0.006 µM |  | 0% |  |  |  |  | 
8 | IQGNVTSIH [Rv3875_18–26] | 3% | 0.2 h |  |  |  |  |  |  |  |  |  |  |  |  | Aff A*02:01 (ED50) (HLA-A*02:01 [1]; [13]): 1 µM; Bind A*24:02 (HLA-A*24:02; [14]): 0%; Bind A*68:01 (HLA-A*68:01 [2]; [15]): 17%; Bind A*30:01 (HLA-A*30:01; [16]): 13%; Bind C*07:01 (HLA-C*07:01; [17]): 5%; Bind A*02:01 (HLA-A*02:01 [3]; [18]): 51%; Bind A*30:02 (HLA-A*30:02 [5]; [19]): 36%; Bind B*58:01 (HLA-B*58:01 [6]; [20]): 7%
9 | ITYQAWQAQ [Rv0288_49–57] |  |  |  |  |  |  |  |  | 9e-06 M | 56% |  | 0% | 1.9 h | 78% | O-rate B*58:01 (t1/2) (HLA-B*58:01 [11]): 0.5 h; Aff B*58:01 (ED50) (HLA-B*58:01 [12]): 0.2 µM
